Structures can show the parent of a compound that is named as a salt.
Key:
Assay in all cases: MIC of compounds alone, broth microdilution (CLSI)
Assay type in all cases: cell-based
P. aeruginosa PAE UFR92 = conditions: Pseudomonas aeruginosa, PAEUFR92, read-out: MIC alone PAE UFR92
Description: (§1) Compounds of the present invention were assessed against genotyped bacterial strains alone or in combination with the β-lactam ceftazidime.

E. coli ECO 190317 = conditions: Escherichia coli, ECO190317, substance alone, TEM-1, SHV-12, CTX-M-15, OXA-1
Description: as §1

E. cloacae ECL P99 = conditions: Enterobacter cloacae, ECLP99, substance alone, AmpC
Description: as §1

P. aeruginosa PAE 107051 = conditions: Pseudomonas aeruginosa, PAE107051, substance alone, TEM-24, OXA-1
Description: as §1

[1] = test system: P. aeruginosa PAE 105250 (AH); conditions: Pseudomonas aeruginosa, substance alone, OXA-15
Description: as §1

E. coli ECO UFR39 = conditions: Escherichia coli, ECOUFR39, substance alone, CTX-M-15, NDM-1
Description: as §1

K. pneumoniae KPN 121206 = conditions: Klebsiella pneumoniae, KPN121206, substance alone, SHV-1, NDM-1
Description: as §1

P. aeruginosa PAE UFR49 = conditions: Pseudomonas aeruginosa, PAEUFR49, substance alone, VIM-2
Description: as §1

SMILES	MIC (P. aeruginosa PAE UFR92) [µg/mL]	MIC (E. coli ECO 190317) [µg/mL]	MIC (E. cloacae ECL P99) [µg/mL]	MIC (P. aeruginosa PAE 107051) [µg/mL]	MIC [1] [µg/mL]	MIC (E. coli ECO UFR39) [µg/mL]	MIC (K. pneumoniae KPN 121206) [µg/mL]	MIC (P. aeruginosa PAE UFR49) [µg/mL]
NCc1nc2c(s1)C1CN(C2)C(=O)N1OS(=O)(=O)O (stereo not drawn) [Example 4]	32	0.25	1	> 32	32	0.25	32	32
CC(C)(O/N=C(\C(=O)N[C@@H]1C(=O)N2C(C(=O)[O-])=C(C[n+]3ccccc3)CS[C@H]12)c1csc(N)n1)C(=O)O [CAZ, ceftazidime]	32	128	128	256	256	> 256	> 256	64
CCOC(=O)[C@@H]1c2c(-c3ccc(F)cc3)csc2[C@@H]2CN1C(=O)N2OS(=O)(=O)[O-].[Na+] [Example 8]	> 32	> 32	> 32	> 32	> 32	> 32	> 32	> 32
CC(=O)Nc1nc2c(s1)C1CN(C2)C(=O)N1OS(=O)(=O)[O-].[Na+] (stereo not drawn) [Example 6]	> 32	2	16	> 32	> 32	4	> 32	> 32
O=C1N2Cc3ccsc3C(C2)N1OS(=O)(=O)[O-].[Na+] (stereo not drawn) [Example 7]	> 32	2	8	> 32	> 32	4	> 32	> 32
NCCNC(=O)c1nc2c(s1)C1CN(C2)C(=O)N1S(=O)(=O)O (stereo not drawn) [Example 1, [2-(2-aminoethylcarbamoyl)-5,8-methano-6-oxo-4,8-dihydrothiazolo[4,5-e][1,3]diazepin-7-yl]sulfonic acid]	8	0.25	2	8	8	0.5	32	16
O=C(Nc1nc2c(s1)C1CN(C2)C(=O)N1OS(=O)(=O)[O-])OCc1ccccc1.[Na+] (stereo not drawn) [Example 5]	> 32	> 32	> 32	> 32	> 32	> 32	> 32	> 32
N=C(N)NCc1nc2c(s1)C1CN(C2)C(=O)N1OS(=O)(=O)O (stereo not drawn) [Example 2]	4	0.063	1	2	4	0.125	> 32	4
CN(C)C(=O)[C@@H]1c2c(CCNC(=N)N)csc2C2CN1C(=O)N2OS(=O)(=O)O (stereo in doubt) [Example 11, [(trans-4-(dimethylcarbamoyl)-3-(2-quanidinoethyl)-5,8-methano-6-oxo-4,8-dihydrothieno[2,3-e][1,3]diazepin-7-yl] hydrogen sulfate]	8	4	16	4	4	> 32	> 32	4
CN(C)C(=O)[C@H]1c2nc(C(=O)NCCNC(=N)N)sc2[C@@H]2CN1C(=O)N2OS(=O)(=O)O (relative stereo) [Example 9, [trans-4-(dimethylcarbamoyl)-2-(2-guanidinoethylcarbamoyl)-5,8-methano-6-oxo-4,8-dihydrothiazolo[4,5-e][1,3]diazepin-7-yl] hydrogen sulfate]	32	32	> 32	8	8	> 32	> 32	4
CN(C)C(=O)[C@@H]1c2c(CNC(=N)N)csc2[C@H]2CN1C(=O)N2OS(=O)(=O)O.O=C(O)C(F)(F)F (relative stereo) [Example 10, [N-[[trans-4-(dimethylcarbamoyl)-5,8-methano-6-oxo-7-sulfooxy-4,8-dihydrothieno[2,3-e][1,3]diazepin-3-yl]methyl]carbamimidoyl]ammonium 2,2,2-trifluoroacetate]	8	2	16	4	8	32	32	8
N=C(N)NCCNC(=O)c1nc2c(s1)C1CN(C2)C(=O)N1OS(=O)(=O)O (stereo not drawn) [Example 3, [2-(2-quanidinoethylcarbamoyl)-5,8-methano-6-oxo-4,8-dihydrothiazolo[4,5-e][1,3]diazepin-7-yl]sulfonic acid]	8	0.5	0.5	4	8	2	16	16
